Patent US20220267390A1, “MPS MODIFIED PEPTIDES AND USE THEREOF” (The Regents of the University of California, priority 2019, published 2022)
Where no end group is shown, it is not given here.

Columns and labels:
IPF fibroblast cells = assay: cells; format: cell-based, human; details: 72 h
Description: FIG. 14: Comparison of MPS-12042 (SEQ ID NO: 45) versus know tyrosine kinase inhibitor (TKLs) on the treatment of IPF fibroblast cells. Both normal and IPF lung fibroblast cells were treated with various drugs. After 72 hours, cells were subjected to MTT assays and IC50 for each drug was determined.
Human primary fibroblast cells were obtained from airway tissues provided from the UC Davis Medical Hospital (Sacramento, Calif.) with consent. The protocol for human tissue procurement and usage were periodically reviewed and approved by the University Human Subject Research Review Committee. Primary fibroblast cell lines, IPF-1 and IPF-2 cells, were established from IPF patients. Cells were obtained from lung biopsies and the diagnosis of IPF was supported by patient history, physical examination, pulmonary function tests, and typical high-resolution chest computed tomography findings of IPF. […] All patients fulfilled the criteria for the diagnosis of IPF as established by the American Thoracic Society and European Respiratory Society. Non-fibrotic primary control adult human lung fibroblast lines, Normal-1 and Normal-2 cells were used. These lines were established from normal lung tissue or histologically normal lung tissue adjacent to carcinoid tumor. The IPF cell line, LL97A, was purchased from the American Type Culture Collection (ATCC) (Manassas, Va.). Lung fibroblast lines were cultured in high-glucose DMEM or RPMI-1640 medium with 10% fetal bovine serum and 1% penicillin-streptomycin at 37° C. in a humidified atmosphere of 5% CO2. Fibroblasts were used between passages 4 and 8. Cells were characterized as fibroblasts as described^26.
Cells were seeded onto 96-well plates at a density of 5-10×10^3 cells per well and cultured for the indicated treatment. Cell proliferation was evaluated using a MTS assay kit (Promega, Madison, Wis.). Twenty microliters of the combined MTS/PMS solution was added into each well, incubated for 3 hours at 37° C., and the absorbance was measured at 490 nm by using an ELISA reader. For Trypan blue test, cells were plated on 12-well plates and treated with the indicated chemotherapeutic agents. After 72 hours, both attached and detached cells were collected and then stained with 0.2% trypan blue (0.1% final concentration), and the number of trypan blue-positive and -negative cells was counted using a haemocytometer under low-power microscopy. For colony-forming assays, 200 cells were seeded in each well of six-well plates. IPF-1 or IPF-2 primary cells were treated with peptides at the indicated concentrations for 10 days. Colonies were stained using 0.001% crystal violet and the number of colonies with a diameter greater than 0.5 mm was counted under an inverted microscope.

PIP3 = assay: Immunocytochemistry with anti-PIP3 antibodies in IPF lung fibroblast cells; format: cell-based, human; details: 100 μM, 12 hours
Description: Multiple IPF lung fibroblast cells were treated with either PBS or 100 μM of MPS peptide for 12 hours and then subjected to immunocytochemistry using anti-PIP3 antibodies. Representative images are shown (n=3). Scale bar: 20 μm.
MARCKS levels and activity (phospho-MARCKS) were correlated with higher pro-fibrotic activity including cell proliferation, extracellular matrix production, invasiveness, and fibroblast differentiation. Upon treatment with MPS peptides, which target MARCKS activity, Applicant observes attentuation of these activities. The second significant finding was that MARCKS mediates these profibrotic effects through through the PI3K/AKT pathway. […] Targeting of these activities with MPS peptide results in decreased AKT activity and downstream pro-fibrotic signals. The mechanism through which this occurs is through regulation of PIP2 availability at the cell membrane. In an unphosprylated state, MARCKS is able to bind PIP2 at the cell membrane, preventing PI3K proteins from converting PIP2 into PIP3 and effecting downstream AKT activity. Upon phosphorylation, MARCKS is released from the cell membrane into the cytosol, freeing up PIP2 and allowing PI3K to convert PIP2 into PIP3. […] Applicant obtained multiple IPF lung fibroblast cells and treated them with either PBS or 100 μM MPS peptide for 12 hours and subjected to immunocytochemistry utilizing anti-PIP3 antibody.

KKKKKRFSFKKSFKLSGFSFKKNKK [MPS peptide]
IC50 (IPF fibroblast cells): 125 to 178 µM
PIP3 levels (PIP3): reduced
